Data taken from patent US10426815B2, “Prevention and treatment of itch with an MRGPR antagonist” (THE GENERAL HOSPITAL CORPORATION, priority 2015, dated 2019).
“Also recorded” adds a separate entry of the source.

Experiments:
[1] = target: T1, MrgA1 (mouse MrgprA1) (Mus musculus, UniProt Q91WW5); test: Calcium imaging of cells transfected with the GPCR (Table 1); format: cell-based; conditions: for inhibition of SP-induced activation of mouse MrgprA1: FIG. 6a: SP 5 μM, inhibitors 10 μM, FK888 10 μM; for activation of mouse MrgprA1 by the substance (in words): NPFF 50 μM, SP at nanomolar concentrations
T1 construct: host or cells: HeLa cells
T1 sequence (Q91WW5 1-304): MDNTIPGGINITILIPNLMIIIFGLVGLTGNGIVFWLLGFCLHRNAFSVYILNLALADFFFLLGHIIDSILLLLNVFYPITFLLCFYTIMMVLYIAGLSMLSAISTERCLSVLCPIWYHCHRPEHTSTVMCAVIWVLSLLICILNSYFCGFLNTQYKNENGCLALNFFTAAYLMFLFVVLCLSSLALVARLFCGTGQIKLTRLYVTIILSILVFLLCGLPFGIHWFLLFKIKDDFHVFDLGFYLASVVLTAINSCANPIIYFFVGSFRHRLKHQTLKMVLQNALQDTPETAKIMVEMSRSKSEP
Protocol: human MRGPRX2 was isolated by PCR from human genomic DNA using the forward and reverse primers, […] (SEQ. ID. NO: 3) and […] (SEQ. ID. NO: 4), and cloned into pcDNA3.1(−). The mouse MrgprA1 cDNA expression clone was purchased from ORIGENE Technologies. The mouse MrgprB2 coding sequences were PCR-amplified from mouse genomic DNA using the primer pair, […] (SEQ. ID. NO: 5) and […] (SEQ. ID. NO: 6), and cloned into pcDNA3.1 (−).
(§1) 10 μg of expression vector (human MRGPRX2, mouse MrgprA1 or NK1) and 10 μl of LIPOFECTAMINE 2000 transfection reagent were diluted into 0.5 ml of DMEM and separately left at room temperature (RT) for 5 min. They were then mixed and incubated at RT for 20 minutes prior to being added to HeLa cells. HeLa cells were grown to confluence, trypsinized and 1×10^6 cells were pelleted in a 15 ml tube by centrifugation at 1000 rpm for 5 minutes. The DMEM-LIPOFECTAMINE 2000-DNA mixture (1 ml) was then added to the cell pellet, suspended and incubated at RT for 5 minutes. 2 ml of complete DMEM with 10% FBS without antibiotics were added to the tube, mixed by inverting the tube, plated into a 96-well glass bottom plate at 50,000 cells/well, and placed in a 37° C. CO2 incubator for 3 hours. HeLa cells transfected with salmon sperm DNA were plated as a control. The medium was changed after 3 hours and left in the incubator. 24 hours after transfection, the medium in the wells was removed and 100 μl of complete DMEM containing 2 μM of FURA-2 were added to each well and left at room temperature in the dark for 1 hr. Following loading with FURA-2, the medium was removed, washed with PBS and replaced with 90 μl of HEPES-buffered saline (20 mM HEPES, 115 mM NaCl, 5.4 mM KCl, 2 mM CaCl2, 0.8 mM MgCl2, 13.8 mM glucose, pH 7.4).
Calcium imaging was performed immediately after loading cells with Fura-2, using a ZEISS Axiovert 200M microscope platform equipped with a flipping filter wheel for ratiometric imaging. Axiovision software, version 4.6 was used for calcium image analysis of the cells excited at 340 nm and 380 nm. Agonists were added at 15 seconds after the start of the excitation procedure. Antagonists were added five minutes before imaging with the agonists. Images were taken every 5 seconds, including at zero time, during a 90 second period or longer if required. The software later analyzed all images taken during each excitation period. Ratiometric changes were measured in 10-20 cells in each individual experiment. An average of the fluorescence of the cells in each image was calculated and plotted against time in seconds.
HeLa cells transfected with human MRGPRX2, mouse MrgprA1 and NK1 cDNAs were subjected to ratiometric imaging as described above with SP at concentrations from 0.1 nM-50 μM. Each of the concentration dependent readings was performed in triplicate. Maximum intensities at each of the dilutions were calculated and plotted against concentration using GraphPad Prism software. Error bars represent SEM.
The top row lists ligands that have been tested versus the various receptors, both in the absence and presence of QWF.

[2] = test system: Mrgprs; test: Calcium imaging of transfected HeLa cells, statements on Mrgprs not named singly; format: cell-based; conditions: for inhibition of activation of Mrgprs by SP: FIG. 6a: cells pretreated with inhibitor 10 minutes
Protocol: as §1, with “They” for “10 μg of expression vector (human MRGPRX2, mouse MrgprA1 or NK1) and 10 μl of LIPOFECTAMINE 2000 transfection reagent were diluted into 0.5 ml of DMEM and separately left at room temperature (RT) for 5 min. They”, “7.4). Calcium imaging was performed immediately after loading cells with Fura-2, using a ZEISS Axiovert 200M microscope platform equipped with a flipping filter wheel for ratiometric imaging. Axiovision software, version 4.6 was used for calcium image analysis of the cells excited at 340 nm and 380 nm. Agonists were added at 15 seconds after the start of the excitation procedure. […] The software later analyzed all images taken during each excitation period. Ratiometric changes were measured in 10-20 cells in each individual experiment. An average of the fluorescence of the cells in each image was calculated and plotted against time in seconds.” for “7.4).”

[3] = test system: mice (itch, scratching bouts); test: Mouse cheek model, scratching bouts; format: in vivo; conditions: for provocation of itch (scratching bouts) by the injected substance, WT mice: intradermal injection into the cheek; for provocation of itch (scratching bouts) by the injected substance, WT mice / effect on SP-provoked itch (scratching bouts): 10 μl; for effect on SP-provoked itch (scratching bouts): C57BL/6 (WT) mice, co-injected with SP intradermally into the cheek
Protocol: The mouse cheek model was used to evaluate scratching behavior in Mrgpr cluster Δ−/− and NK1−/− mice. Mice used for behavioral studies were 2 to 3 months old, 20-30 g. Mice were habituated for 30 minutes/day for 3 days prior and for 15 minutes on the day of the study. 10 μl of each compound were delivered by a 31G needle to the cheek. The mice were not shaved prior to injections to avoid irritation. All experiments were performed at consistent times during the day (9:00 am to 2:00 pm) and under the same conditions and in groups of at least 7 mice. The mice were videotaped in a soundproof environment minimize distraction. Recordings were scored for the number of scratching bouts that occur over 1 minute intervals during 25 minute observation periods and the investigator was not aware of the group allocation during scoring the study and behavioral analysis. A scratching bout was initiated by lifting of the hind paw to the area of injection, and ended by returning of the hind paw to the floor or to the mouth. […]
For behavioral studies, average numbers of scratching bouts were compared across groups using one-way ANOVA. Pair-wise comparisons were performed using student t test after correcting p values for multiple comparisons using the Bonferroni procedure. For DRG studies and mast cell degranulation studies, unpaired student t-test was used. Differences were considered to be statistically significant for P<0.05. Data analysis was performed using PRISM 6.

[4] = C57BL/6 mice, co-injected intradermally into the cheek, 10 μL, 500 μM of each substance

Compound | inhibition of SP-induced activation of mouse MrgprA1 [1] | inhibition of activation of Mrgprs by SP [2] | activation of mouse MrgprA1 by the substance (in words) [1] | provocation of itch (scratching bouts) by the injected substance, WT mice [3] | effect on SP-provoked itch (scratching bouts) ([3]; 500 μM of each substance) | other results
SLIGRL: tethered hexapeptide ligand of mouse PAR2 (SEQ ID NO: 7) |  |  | activates | provoke itch |  | 
Boc-Gln-D-Trp(Formyl)-Phe benzyl ester trifluoroacetate [QWF] | excellent inhibitor; also recorded: potent antagonist; also recorded: inhibits; also recorded: blocks | blocks |  |  | significantly decreased; also recorded: decreased SP-induced itch to baseline; also recorded: decreased SP-provoked itch to baseline; also recorded: reduced to baseline | inhibition of mMrgprA1 activation by compound 48/80 [1]: inhibits; inhibition of activation of Mrgprs by compound 48/80 ([2]; FIG. 7b: compound 48/80 1 μM, QWF 1 μM): antagonizes; also recorded: inhibits; effect on SLIGRL-provoked itch (scratching bouts) [3, 4]: blocks; also recorded: reduced to baseline; also recorded: significantly decreased; effect on compound 48/80-provoked itch (scratching bouts) [3, 4]: blocks compound 48/80-induced itch to baseline; also recorded: blocks compound 48/80-provoked itch to baseline; also recorded: reduced to baseline; also recorded: significantly decreased
SP: inflammatory undecapeptide neuropeptide of the tachykinin family, synthesized by GenScript |  |  | activates; also recorded: specifically activated | induced itch; also recorded: provoked itch |  | SP-provoked itch in NK1 knockout mice ([3]; cheek, intradermal, FIG. 5a: 10 μL SP 1 mM, compared to WT): induced itch; also recorded: provoked itch; also recorded: not decreased; SP-provoked itch in Mrgpr cluster knockout mice ([3]; cheek, intradermal, FIG. 5a: 10 μL SP 1 mM, compared to WT, listed as Substance P): does not provoke itch; provocation of itch (scratching bouts) by the injected substance, WT mice ([3]; listed as Substance P): provokes itch

Continued, in another order:

inhibition of SP-induced activation of mouse MrgprA1 [1] | Compound | inhibition of activation of Mrgprs by SP [2] | activation of mouse MrgprA1 by the substance (in words) [1] | provocation of itch (scratching bouts) by the injected substance, WT mice [3] | effect on SP-provoked itch (scratching bouts) ([3]; 500 μM of each substance) | other results
did not impact and not | C[C@@H](O[C@H]1OCCN(Cc2n[nH]c(=O)[nH]2)[C@H]1c1ccc(F)cc1)c1cc(C(F)(F)F)cc(C(F)(F)F)c1 [aprepitant] | did not impact; also recorded: do not inhibit |  |  |  | 
did not impact | FC(F)(F)c1cc(CO[C@H]2CCCN[C@H]2c2ccccc2)cc(C(F)(F)F)c1 [L-733060] | did not impact |  |  | only minimally effective; also recorded: not effective | inhibition of SP-induced activation of mouse MrgprA1 ([1]; listed as L733060): not; inhibition of activation of Mrgprs by SP ([2]; listed as L733060): do not inhibit; effect on SP-provoked itch (scratching bouts) ([3]; 500 μM of each substance, listed as L733060): does not significantly decrease and not and lack of significant blockade and does not
